From patent publication US20240254138A1, “TRICYCLIC PYRIMIDINES AS CYCLIN-DEPENDENT KINASE 7 (CDK7) INHIBITORS” (JANSSEN PHARMACEUTICA NV, priority 2021, published 2024)
Like-named read-outs stand apart in the source and are kept apart here.

Experiments:
[1] = test system: RNA Polymerase II Serine 5 phosphorylation (Rpb1 CTD, downstream substrate of CDK7) in A549 cells; experiment: Imaging-based cellular RNA PolII Ser5 phosphorylation assay in A549 cells; assay type: cell-based, human; settings: wild-type CDK7, RNA PolII Ser5 phosphorylation, averaged over all measurements; for IC50: Homo sapiens, A549, A549 cells, read-out: CDK7_A549 Wild-type CDK7 (pIC50) (converted)
In short: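 IC50 derived by fitting % control (DMSO high, 10 μM reference low) against concentration, with Hill slope. Readout: high-content imaging of phospho-Ser5 Rpb1 CTD antibody staining in fixed, permeabilized A549 cells exposed to compound 3 h after 20 h culture in 1% FBS DMEM.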

[2] = test system: RNA Polymerase II Serine 5 phosphorylation in A549 cells overexpressing CDK7-mutant (C312S); experiment: Imaging-based cellular RNA PolII Ser5 phosphorylation assay in A549 cells overexpressing CDK7-mutant (C312S); assay type: cell-based, human; settings: RNA PolII Ser5 phosphorylation, averaged over all measurements; for IC50: Homo sapiens, A549, A549 cells overexpressing CDK7-mutant (C312S), read-out: CDK7_A549 mutant hCDK7(pIC50) (converted); for CDK7_A549 mutant hCDK7(pIC50): A549 cells overexpressing CDK7-mutant (C312S)
In short: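 Readout was automated imaging of anti-phospho-Ser5 Rpb1 CTD immunofluorescence, with IC50 fitted to % control versus concentration. Cells were A549 stably overexpressing non-covalently targetable CDK7 C312S alongside wild-type, exposed to compound 3 h at 37 °C. DMSO and 10 μM reference compound served as controls.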

[3] = target: CDK7/cyclinH/MAT1 trimeric complex (Homo sapiens, UniProt P50613); experiment: In vitro CDK7 assay, potency of irreversible covalent inhibitors (kinact/KI), coupled PK/LDH ADP readout at 340 nm
[4] = CDK7 (20 nM enz.) (KI, μM), 20 nM enzyme
[5] = read-out: CDK7 (20 nM enz.) (kinact, s^−1), 20 nM enzyme
[6] = read-out: CDK7 (20 nM enz.) (kinact/KI, M^−1*s^−1), 20 nM enzyme
[7] = read-out: CDK7 (20 nM enz.) (kobs/[I], M^−1*s^−1), 20 nM enzyme
[8] = CDK7 (KI(μM)), […], 1 mM ATP, room temperature, averaged values over all measurements
[9] = read-out: CDK7 (kinact, s^−1), kinact = maximal rate of inactivation, 1 mM ATP, room temperature, averaged values over all measurements
[10] = read-out: CDK7 (kinact/KI, M^−1*s^−1), potency of irreversible covalent inhibitors, 1 mM ATP, room temperature, averaged values over all measurements

CDK7/cyclinH/MAT1 trimeric complex, sequence (P50613 whole entry): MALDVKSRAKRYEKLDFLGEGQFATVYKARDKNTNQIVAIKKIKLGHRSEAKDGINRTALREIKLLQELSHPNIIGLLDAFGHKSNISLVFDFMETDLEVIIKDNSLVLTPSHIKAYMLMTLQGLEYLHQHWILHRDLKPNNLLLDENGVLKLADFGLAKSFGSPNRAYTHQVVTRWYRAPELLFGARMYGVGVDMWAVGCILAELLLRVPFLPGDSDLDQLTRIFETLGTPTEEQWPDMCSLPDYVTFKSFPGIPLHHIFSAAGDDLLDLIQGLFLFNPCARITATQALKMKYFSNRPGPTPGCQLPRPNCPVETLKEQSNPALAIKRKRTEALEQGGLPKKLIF
CDK7/cyclinH/MAT1 trimeric complex, sequence (P51946 whole entry partner): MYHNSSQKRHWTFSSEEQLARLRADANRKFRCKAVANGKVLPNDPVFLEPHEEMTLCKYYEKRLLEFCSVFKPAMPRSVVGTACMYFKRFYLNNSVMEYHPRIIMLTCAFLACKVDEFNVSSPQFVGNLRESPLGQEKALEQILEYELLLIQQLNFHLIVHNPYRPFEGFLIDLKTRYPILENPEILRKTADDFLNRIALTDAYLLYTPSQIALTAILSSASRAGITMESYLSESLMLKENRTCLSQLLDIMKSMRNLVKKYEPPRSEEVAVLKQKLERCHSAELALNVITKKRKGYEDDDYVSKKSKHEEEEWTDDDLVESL
CDK7/cyclinH/MAT1 trimeric complex, sequence (P51948 whole entry partner): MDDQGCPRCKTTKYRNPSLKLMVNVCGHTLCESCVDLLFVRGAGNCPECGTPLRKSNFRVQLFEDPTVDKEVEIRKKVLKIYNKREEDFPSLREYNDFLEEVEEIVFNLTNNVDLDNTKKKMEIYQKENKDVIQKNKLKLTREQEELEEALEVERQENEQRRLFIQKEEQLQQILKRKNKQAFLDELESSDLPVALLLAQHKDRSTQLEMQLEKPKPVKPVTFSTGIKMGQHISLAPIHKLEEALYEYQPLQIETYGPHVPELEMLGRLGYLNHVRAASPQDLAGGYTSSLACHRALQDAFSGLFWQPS

SMILES	IC50 [1] [nM]	IC50 [2] [nM]	melting point [°C]	Ki [3, 4] [µM]	kinact [3, 5] [s⁻¹]	kinact/KI [3, 6] [M⁻¹ s⁻¹]	kinact/KI [3, 7] [M⁻¹ s⁻¹]	CDK7_A549 Wild-type CDK7 (pIC50) ([1]; A549 cells)	CDK7_A549 mutant hCDK7(pIC50) [2]	CDK7 (20 nM enz.) (kinact, s^−1) ([3]; 20 nM enzyme) [s⁻¹]	Ki [3, 8] [µM]	kinact [3, 9] [s⁻¹]	kinact/KI [3, 10] [M⁻¹ s⁻¹]
C=CC(=O)N1CC(N2CCC(c3cc4c(c(C)n3)O[C@H](C)c3c(N5CCOCC5)ccnc3N4)CC2)C1 (single isomer, unassigned) [Compound 262]	29.5	> 10000	225	0.0323	3.71e-05	1150	–	–	–	–	–	–	–
C=CC(=O)N1CC(N2CCC(c3cc4c(c(C#N)n3)OCc3c(N5CCOCC5)ccnc3N4)CC2)C1 [Compound 306]	123	> 10000	256.7	–	–	–	1170	–	–	–	–	–	–
C=C(C(=O)N1CC(N2CCC(c3cc4c(c(C)n3)O[C@H](C)c3c(N5CCOCC5)ccnc3N4)CC2)C1)n1cccn1 (single isomer, unassigned) [Compound 526]	14.1	> 2510	131.3	0.0767	2.61e-05	340	–	–	–	–	–	–	–
C=C(C(=O)N1CC(N2CCC(c3cc4c(c(C)n3)O[C@@H](C)c3c(N5CCOCC5)ccnc3N4)CC2)C1)n1cccn1 (single isomer, unassigned) [Compound 523]	97.7	> 10000	148	0.0496	1.97e-05	398	–	–	–	–	–	–	–
CC#CC(=O)N1CC(N2CCC(c3cc4c(c(C)n3)OCc3c(N5CCOCC5)ccnc3N4)CC2)C1 [Compound 279]	138	> 10000	178.5	0.233	2.96e-05	127	–	–	–	–	–	–	–
C=CC(=O)N1CC(N2CCC(c3cc4c(cn3)OCc3c(N5CCOCC5)ccnc3N4)CC2)C1 [Compound 83]	–	–	238.4	–	–	–	782	6.95	<5	–	–	–	–
C=CC(=O)N1CC(N2CCC(c3cc4c(c(C5CC5)n3)OCc3c(N5CCOCC5)ccnc3N4)CC2)C1 [Compound 272]	44.7	> 10000	189.9	0.0212	2.13e-05	1010	–	–	–	–	–	–	–
CC#CC(=O)N1CC(N2CCC(c3cc4c(c(C5CC5)n3)OCc3c(N5CCOCC5)ccnc3N4)CC2)C1 [Compound 403]	155	> 10000	174.8	0.0766	4.63e-05	605	–	–	–	–	–	–	–
C=CC(=O)N1CC(N2CC[C@H](c3cc4c(c(C)n3)O[C@@H](C)c3c(N5CCOCC5)ccnc3N4)C2)C1 (single isomer, unassigned) [Compound 218]	8510	> 10000	> 300	–	–	0.84	–	–	–	–	–	–	–
C=CC(=O)N1CC(N2CCC(c3cc4c(c(C)n3)OCc3c(-c5cnn(C)c5)ccnc3N4)CC2)C1 [Compound 164]	55	> 10000	277.8	0.0786	–	1010	–	–	–	7.933e-05	–	–	–
C=CC(=O)N1CC(N2CCC(c3cc(C#N)c4c(c3)Nc3nccc(N5CCOCC5)c3[C@H](C)O4)CC2)C1 (single isomer, unassigned) [Compound 353]	209	> 10000	220.7	4.52	0.000132	29.2	–	–	–	–	–	–	–
C#Cc1cc(C2CCN(C3CN(C(=O)C=C)C3)CC2)cc2c1O[C@H](C)c1c(N3CCOCC3)ccnc1N2 (single isomer, unassigned) [Compound 268]	1070	> 10000	236.7	0.934	4.13e-05	44.2	–	–	–	–	–	–	–
C=CC(=O)N1CC[C@@H](N2CCC(c3ccc4c(c3)Nc3ncc(F)c(N5CCOCC5)c3CO4)CC2)C1 (single isomer, unassigned) [Compound 223]	41.7	7590	106	0.127	6.11e-05	480	–	–	–	–	–	–	–
C=CC(=O)Nc1ccc(C(=O)Nc2ccc3c(c2)Nc2nccc(C4CCOCC4)c2CO3)cc1 [Compound 1]	132	~8510	281.1	0.0456	5.77e-05	1270	–	–	–	–	0.107	0.0003	2030
C=CC(=O)N1CC(N2CCC(c3ccc4c(c3)Nc3nccc(-c5cnn(C)c5)c3[C@H](C)O4)CC2)C1 (single isomer, unassigned) [Compound 128]	4470	> 10000	223.3	10.2	0.000115	11.3	–	–	–	–	–	–	–
C=CC(=O)N1CC(N2CCC(c3cc4c(c(-c5ncc[nH]5)n3)OCc3c(N5CCOCC5)ccnc3N4)CC2)C1 [Compound 378]	162	> 3980	195.5	–	–	–	1740	–	–	–	–	–	–
CC#CC(=O)N1CC(N2CCC(c3cc4c(c(-c5ncc[nH]5)n3)OCc3c(N5CCOCC5)ccnc3N4)CC2)C1 [Compound 369]	245	> 10000	229.2	0.0216	3e-05	1390	–	–	–	–	–	–	–
C=CC(=O)N1CC(N2CCC(c3ccc4c(c3)OCc3c(N5CCOCC5)ccnc3N4)CC2)C1 [Compound 35]	692	> 10000	117.9	–	–	–	–	–	–	–	0.123	0.000133	1090
C=CC(=O)N1CC(N2CCC(c3cc4c(cn3)O[C@H](C)c3c(N5CCOCC5)ccnc3N4)CC2)C1 (single isomer, unassigned) [Compound 263]	51.3	> 3980	> 300	0.168	5.18e-05	308	–	–	–	–	–	–	–
C=CC(=O)N1CC(N2CCC(c3cc4c(c(C)n3)OCc3c(N5CCOCC5)ccnc3N4)CC2)C1 [Compound 173]	64.6	–	236.9	0.0574	7.26e-05	1260	–	–	<5.4	–	–	–	–
C=CC(=O)N1CC[C@H](N2CCC(c3ccc4c(c3)Nc3ncc(F)c(N5CCOCC5)c3CO4)CC2)C1 (single isomer, unassigned) [Compound 222]	97.7	> 10000	138	0.18	7.49e-05	416	–	–	–	–	–	–	–
